Activity calls are given as the source filed them.
Key:
[1] = target: E3 ubiquitin-protein ligase XIAP (Homo sapiens, UniProt P98170); assay: Counter Screen using XIAP-Bir3 for Chemical Antagonists of Bir1/2 domains of IAP-family anti-apoptotic proteins. [Related pubchem assays (depositor defined):AID1018, AID1449, AID1514, AID1638, AID1749, AID1750, AID488957, AID488963]
[2] = target: T1, Carboxy-terminal domain RNA polymerase II polypeptide A small phosphatase 1 (Homo sapiens, UniProt Q9GZU7); assay: inhibitors of CTDSP1, concentration-response testing, biochemical assay, absorbance-based, actives from ultra-high-throughput screening (AID 540297); type: functional
T1 sequence (Q9GZU7 whole entry): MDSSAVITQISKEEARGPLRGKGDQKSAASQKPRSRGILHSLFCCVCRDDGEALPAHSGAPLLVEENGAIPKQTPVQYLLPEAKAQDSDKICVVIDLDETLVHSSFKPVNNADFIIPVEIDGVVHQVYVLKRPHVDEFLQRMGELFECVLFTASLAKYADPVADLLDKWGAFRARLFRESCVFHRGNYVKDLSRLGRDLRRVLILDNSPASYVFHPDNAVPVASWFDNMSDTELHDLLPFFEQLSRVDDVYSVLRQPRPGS

[3] = target: T2, Dual specificity protein phosphatase 6 (Rattus norvegicus, UniProt Q64346); assay: MKP-3 phosphatase inhibitors, primary screen, biochemical, rat enzyme, in vitro (AID 425)
T2 sequence (Q64346 whole entry): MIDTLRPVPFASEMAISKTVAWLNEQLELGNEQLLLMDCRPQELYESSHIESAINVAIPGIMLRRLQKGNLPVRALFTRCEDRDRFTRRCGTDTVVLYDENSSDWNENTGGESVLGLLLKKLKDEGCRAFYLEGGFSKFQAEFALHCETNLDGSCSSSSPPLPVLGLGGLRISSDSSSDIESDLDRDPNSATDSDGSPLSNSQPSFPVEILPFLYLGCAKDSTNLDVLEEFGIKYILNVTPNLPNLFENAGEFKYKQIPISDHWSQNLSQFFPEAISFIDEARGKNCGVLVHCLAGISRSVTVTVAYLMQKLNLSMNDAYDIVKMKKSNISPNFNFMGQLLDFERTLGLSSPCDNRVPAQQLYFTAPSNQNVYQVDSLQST

[4] = target: T3, Dual specificity protein phosphatase 3 (Homo sapiens, UniProt P51452); assay: VHR1 phosphatase inhibitors, biochemical (AID 1878)
T3 sequence (P51452 whole entry): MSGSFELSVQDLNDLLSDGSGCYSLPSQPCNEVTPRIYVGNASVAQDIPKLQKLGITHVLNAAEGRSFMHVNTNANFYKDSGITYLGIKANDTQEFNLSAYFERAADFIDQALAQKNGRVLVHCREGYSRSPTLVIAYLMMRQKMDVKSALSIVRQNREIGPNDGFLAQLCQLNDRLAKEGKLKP

[5] = target: T3, Dual specificity protein phosphatase 3; assay: VHR1 phosphatase inhibitors, primary screen, biochemical, absorbance, uHTS (AID 1654)
[6] = target: T4, G-protein coupled receptor 35 (Homo sapiens, UniProt Q9HC97); assay: SAR analysis of Antagonists of the GPR35 Receptor using an Image-Based Assay - Set 4. [Related pubchem assays (depositor defined):[…]]; type: functional
T4 sequence (Q9HC97 whole entry): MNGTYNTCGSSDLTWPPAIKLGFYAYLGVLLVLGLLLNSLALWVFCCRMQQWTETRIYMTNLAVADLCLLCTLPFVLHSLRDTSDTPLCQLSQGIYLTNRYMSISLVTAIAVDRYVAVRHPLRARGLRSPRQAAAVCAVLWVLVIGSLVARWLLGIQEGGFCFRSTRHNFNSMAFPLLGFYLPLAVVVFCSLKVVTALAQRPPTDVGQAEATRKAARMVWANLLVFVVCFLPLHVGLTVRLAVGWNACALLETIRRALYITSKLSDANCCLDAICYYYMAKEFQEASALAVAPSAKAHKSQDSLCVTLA

[7] = target: T5, G-protein coupled receptor 55 (Homo sapiens, UniProt Q9Y2T6); assay: SAR analysis of selective Agonists of GPR55 using an Image-Based Assay - Set 2. [Related pubchem assays (depositor defined):AID1961, AID1965]; type: functional
T5 sequence (Q9Y2T6 whole entry): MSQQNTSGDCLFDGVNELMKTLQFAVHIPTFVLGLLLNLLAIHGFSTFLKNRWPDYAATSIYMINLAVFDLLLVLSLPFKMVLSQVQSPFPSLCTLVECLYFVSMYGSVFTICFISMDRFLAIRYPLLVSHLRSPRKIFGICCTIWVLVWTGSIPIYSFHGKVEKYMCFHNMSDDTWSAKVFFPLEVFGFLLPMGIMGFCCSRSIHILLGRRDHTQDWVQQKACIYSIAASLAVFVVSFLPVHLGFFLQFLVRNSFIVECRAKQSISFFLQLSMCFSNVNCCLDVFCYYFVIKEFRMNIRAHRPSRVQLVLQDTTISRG

[8] = target: T4, G-protein coupled receptor 35; assay: SAR analysis of Agonists of the GPR35 Receptor using an Image-Based Assay - Set 3. [Related pubchem assays (depositor defined):AID1961, AID1965]; type: functional
Cannabinoid receptor 2 [9] = target: T6, Cannabinoid receptor 2 (Homo sapiens, UniProt P34972); assay: SAR analysis of antagonists of the Cannabinoid Receptor 2 using an Image-Based Assay - Set 2. [Related pubchem assays (depositor defined):AID1961, AID1965]; type: functional
T6 sequence (P34972 whole entry): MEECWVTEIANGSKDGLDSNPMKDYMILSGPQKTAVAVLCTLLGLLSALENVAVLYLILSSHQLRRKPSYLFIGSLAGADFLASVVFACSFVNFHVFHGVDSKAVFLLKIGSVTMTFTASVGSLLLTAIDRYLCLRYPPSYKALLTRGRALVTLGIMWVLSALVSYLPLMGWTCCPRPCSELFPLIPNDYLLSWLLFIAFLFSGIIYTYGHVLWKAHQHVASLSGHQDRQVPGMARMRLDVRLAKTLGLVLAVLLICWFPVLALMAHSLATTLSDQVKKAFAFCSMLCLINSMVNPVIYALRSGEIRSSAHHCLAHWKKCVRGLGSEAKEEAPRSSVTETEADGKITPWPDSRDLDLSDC

Cannabinoid receptor 1 [10] = target: T7, Cannabinoid receptor 1 (Homo sapiens, UniProt P21554); assay: SAR analysis of antagonists of the Cannabinoid Receptor 1 using an Image-Based Assay - Set 3. [Related pubchem assays (depositor defined):AID1961, AID1965]; type: functional
T7 sequence (P21554 whole entry): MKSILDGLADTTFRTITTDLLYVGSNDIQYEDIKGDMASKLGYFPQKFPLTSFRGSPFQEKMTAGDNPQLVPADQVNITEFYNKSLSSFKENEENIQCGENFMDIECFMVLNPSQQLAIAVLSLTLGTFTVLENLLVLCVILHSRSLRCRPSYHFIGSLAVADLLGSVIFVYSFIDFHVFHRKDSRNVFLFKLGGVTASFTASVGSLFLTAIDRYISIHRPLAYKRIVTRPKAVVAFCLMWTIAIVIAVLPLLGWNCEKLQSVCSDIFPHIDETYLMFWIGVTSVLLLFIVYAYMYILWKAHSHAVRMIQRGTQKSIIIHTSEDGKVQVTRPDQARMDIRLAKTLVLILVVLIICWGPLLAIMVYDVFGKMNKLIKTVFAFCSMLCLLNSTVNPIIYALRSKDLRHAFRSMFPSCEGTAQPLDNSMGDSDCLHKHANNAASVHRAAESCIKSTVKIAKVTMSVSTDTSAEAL

Cannabinoid receptor 2 [11] = target: T6, Cannabinoid receptor 2; assay: SAR analysis of agonists of the Cannabinoid Receptor 2 using an Image-Based Assay - Set 2. [Related pubchem assays (depositor defined):AID1961, AID1965]; type: functional
Cannabinoid receptor 1 [12] = target: T7, Cannabinoid receptor 1; assay: SAR analysis of agonists of the Cannabinoid Receptor 1 using an Image-Based Assay - Set 3. [Related pubchem assays (depositor defined):AID1961, AID1965]; type: functional
[13] = HepG2 cell cytotoxicity, dose response, cytotoxicity control for Shn3 inhibitor project, CellTiter-Glo, cherry-picked (AID 624134); type: functional, cell-based
[14] = HEK293 cell cytotoxicity, dose response, cytotoxicity control, plate reader, cherry-picked samples (AID 743446); type: functional, cell-based
[15] = LGR2 antagonists, dose response, cell-based, HEK293, CRE-luciferase reporter, cherry pick, set 2 (AID 743343); type: functional;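 also: transfected cells were stimulated with diluted bursicon conditioned medium after compound addition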
[16] = NIH-3T3 fibroblast cytotoxicity, dose response, cytotoxicity control, cell-based, fluorescence, Alamar Blue, secondary assay (AID 2327); type: functional;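 also: NIH-3T3 mouse fibroblasts cultured with fluconazole at 8 µg/mL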
INS1 = assay: beta cell apoptosis inhibitors, cytokine rescue, dose response, luminescence, retest (AID 449756); type: functional, cell-based; settings: Rattus norvegicus;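 also: cell death triggered by IL-1 beta plus TNF-alpha plus IFN-gamma mixture; protective hits raise ATP signal compared with cytokine alone wells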
[17] = inhibitors of intracellular T. cruzi replication, confirmation, NIH3T3 host cells, beta-gal luminescence (AID 2044); type: functional, cell-based;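 also: intracellular parasites grown in NIH/3T3 mouse fibroblasts as host cells; luminescent beta-galactosidase reporter signal from transgenic T. cruzi replicating inside host cells; inhibitors lower the luminescence signal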
[18] = cytotoxicity toward NIH3T3 fibroblasts, dose response, counter-screen, cell-based, ATP luminescence, mouse fibroblasts (AID 2010); type: functional;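 also: cells exposed to compound for about 90 hours before reading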
[19] = HepG2 cell cytotoxicity, dose response, cytotoxicity control, plate reader, cherry-pick, antagonist series (AID 743416); type: functional, cell-based
[20] = target: T8, Ubiquitin-conjugating enzyme E2 N (Homo sapiens, UniProt P61088); type: functional
T8 sequence (P61088 whole entry): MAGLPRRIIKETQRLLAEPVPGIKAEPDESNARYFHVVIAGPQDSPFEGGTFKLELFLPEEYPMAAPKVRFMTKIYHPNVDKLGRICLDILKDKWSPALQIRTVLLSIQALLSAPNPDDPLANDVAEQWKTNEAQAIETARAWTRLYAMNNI

[21] = Shn3 3'UTR reporter inhibitors, dose response, cell-based, Clone20 osteoblasts, firefly luciferase, cherry-picked (AID 624132); type: functional;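 also: firefly luciferase luminescence from reporter carrying the Shn3 3'UTR in osteoblasts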
[22] = target: DNA damage-inducible transcript 3 protein (Mus musculus, UniProt P35639); type: functional, Cricetulus griseus
Chain of DNA damage-inducible transcript 3 protein (P35639 whole entry): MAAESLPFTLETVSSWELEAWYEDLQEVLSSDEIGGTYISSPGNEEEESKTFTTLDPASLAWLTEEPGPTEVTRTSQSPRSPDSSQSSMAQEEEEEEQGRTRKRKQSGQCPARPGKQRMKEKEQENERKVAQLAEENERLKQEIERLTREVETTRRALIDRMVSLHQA

[23] = MC4R antagonists, dose response, counter-screen for LGR2 antagonist project, cell-based, plate reader, cherry pick (AID 743444); type: functional;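 also: transfected HEK 293 cells stimulated with alpha-MSH peptide; potency of inhibitors of the alpha-MSH evoked signal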
[24] = C. albicans growth with fluconazole, confirmation, fluorescence, retest (AID 2467); type: functional, cell-based
[25] = target: T5, G-protein coupled receptor 55; assay: GPR55 antagonists blocking LPI-driven arrestin recruitment, primary screen, imaging, U2OS, beta-arrestin-GFP, LPI agonist (AID 2013); type: functional;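 also: antagonist potency measured as reduced agonist-driven arrestin aggregation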
[26] = A549 cell cytotoxicity, dose response, cytotoxicity control, plate reader, cherry-pick, antagonist series (AID 743412); type: functional, cell-based
[27] = control 3'UTR Renilla luciferase suppression, dose response, counter-screen for Shn3 inhibitor project, cell-based, Clone20-Shn3RL, cherry-picked (AID 624133); type: functional
X-box-binding protein 1 = X-box-binding protein 1 (Homo sapiens, UniProt P17861); type: functional, Cricetulus griseus;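 also: confirmatory dose-response counter-screen serving a CHOP assay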
Chain of X-box-binding protein 1 (P17861 whole entry): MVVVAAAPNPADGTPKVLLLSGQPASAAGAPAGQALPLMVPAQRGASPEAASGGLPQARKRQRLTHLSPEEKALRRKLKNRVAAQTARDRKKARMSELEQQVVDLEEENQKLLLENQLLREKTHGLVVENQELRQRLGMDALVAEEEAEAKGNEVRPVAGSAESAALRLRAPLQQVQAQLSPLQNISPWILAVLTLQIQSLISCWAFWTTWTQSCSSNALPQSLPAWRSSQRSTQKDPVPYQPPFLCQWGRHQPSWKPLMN

[28] = target: T8, Ubiquitin-conjugating enzyme E2 N; type: functional; remark: listed apart in the source
Bcl-2-related protein A1 = target: T9, Bcl-2-related protein A1 (Mus musculus, UniProt Q07440); type: functional;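 also: confirmatory dose–response counterscreen on Bfl-1, used to check hits from a UBC13 polyubiquitin inhibitor campaign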
T9 sequence (Q07440 whole entry): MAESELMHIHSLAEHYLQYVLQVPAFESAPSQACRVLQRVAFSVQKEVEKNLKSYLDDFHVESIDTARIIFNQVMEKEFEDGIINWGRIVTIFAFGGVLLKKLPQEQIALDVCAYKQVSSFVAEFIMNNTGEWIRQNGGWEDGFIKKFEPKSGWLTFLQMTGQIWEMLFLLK

Chain of E3 ubiquitin-protein ligase XIAP (P98170 whole entry, the tested form may be a part): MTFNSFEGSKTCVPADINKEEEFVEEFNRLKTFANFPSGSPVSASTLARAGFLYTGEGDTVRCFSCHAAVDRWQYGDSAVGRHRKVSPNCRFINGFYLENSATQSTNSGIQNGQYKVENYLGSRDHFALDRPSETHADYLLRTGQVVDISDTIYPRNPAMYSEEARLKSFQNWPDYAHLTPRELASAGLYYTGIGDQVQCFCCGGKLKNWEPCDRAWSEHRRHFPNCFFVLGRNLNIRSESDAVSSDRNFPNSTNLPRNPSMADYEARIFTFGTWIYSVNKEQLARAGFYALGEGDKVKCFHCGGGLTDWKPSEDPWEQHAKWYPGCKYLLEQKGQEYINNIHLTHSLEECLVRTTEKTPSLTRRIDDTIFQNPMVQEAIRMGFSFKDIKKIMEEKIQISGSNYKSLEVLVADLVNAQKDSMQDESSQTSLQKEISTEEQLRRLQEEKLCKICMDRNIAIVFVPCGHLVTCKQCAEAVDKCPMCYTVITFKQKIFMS

Cc1coc2c(C)c3oc(=O)c(CCC(=O)N[C@@H](C)C(=O)N[C@@H](Cc4ccccc4)C(=O)O)c(C)c3cc12
IC50 [1]: > 20 µM (inactive)
IC50 [2]: 3.6 µM (active)

Cc1snc2sc(C(=O)c3ccc(F)cc3)c(N)c12
IC50 [3]: > 158 µM (not active)
IC50 [4]: 2.03 µM (active)
IC50 [5]: < 1.23 µM (inactive)

CCc1cc(C(=O)Nc2cc(S(=O)(=O)N3CCOCC3)ccc2OC)sc1C
IC50 [6]: > 32 µM (inactive)
EC50 [7]: 2.22 µM (active)
EC50 [8]: > 32 µM (inactive)
IC50 (Cannabinoid receptor 2 [9]): > 32 µM (inactive)
IC50 (Cannabinoid receptor 1 [10]): > 32 µM (inactive)
EC50 (Cannabinoid receptor 2 [11]): > 32 µM (inactive)
EC50 (Cannabinoid receptor 1 [12]): > 32 µM (inactive)

Cc1ccc(Nc2nc(NCc3ccco3)c3ccccc3n2)cc1.Cl
AC50 [13]: 12.6 µM (active)
AC50 [14]: 16.1 µM (active)
AC50 [15]: 9.43 µM (active)
EC50 [16]: > 160 µM (inconclusive)
AC50 (INS1): 3.65 µM (active)
EC50 [17]: < 0.1 µM (active)
EC50 [18]: > 30 µM (not active)
AC50 [19]: 7.35 µM (active)
IC50 [20]: > 20 µM (inactive)
AC50 [21]: 9.84 µM (active)
Absolute IC50 (CHOP) [22]: 10 µM
EC50 (cells): 0.094 µM (active)
AC50 [23]: 12.3 µM (active)
EC50 [24]: 3.24 µM (active)
IC50 [25]: 5.21 µM (active)
AC50 [26]: 10.9 µM (active)
AC50 [27]: 3.31 µM (active)
Absolute IC50 (XBP1) (X-box-binding protein 1): 10 µM

CCCCn1c(=O)[nH]c(=O)c2c1nc(-c1ccc(C#N)cc1)n2C1CCCC1
IC50 [28]: 1.99 µM (active)
IC50 [20]: 18.7 µM (active)
IC50 (Bcl-2-related protein A1): > 20 µM (inactive)
